Data published in patent US8163756B2 (priority 2004, dated 2012).

Key:
B-Raf(V599E) kinase = B-Raf(V599E) kinase (Homo sapiens, UniProt P15056, V600E); test: B-Raf(V599E) kinase assay B1 (construct 1, MEK1 substrate, coupled spectrophotometric); type: biochemical
Description: The test compounds were incubated with the reaction mixtureat 30° C. for 2 h. […] The reaction rate was calculated using the […] time frame. […] IC50 values were calculated from a series of percent inhibition values determined at a range of inhibitor concentrations using software routines as implemented in the GraphPad Prism software package.

[1] = molecular target: phosphorylated p-38-alpha kinase (Homo sapiens, UniProt Q16539); test: P-38 alpha kinase assay P1 (coupled spectrophotometric, 2 h pre-incubation); type: biochemical; conditions: method P1 (2 h pre-incubation); read-out: P-38 Data
Sequence of phosphorylated p-38-alpha kinase (Q16539 1-360 isoform Q16539-2): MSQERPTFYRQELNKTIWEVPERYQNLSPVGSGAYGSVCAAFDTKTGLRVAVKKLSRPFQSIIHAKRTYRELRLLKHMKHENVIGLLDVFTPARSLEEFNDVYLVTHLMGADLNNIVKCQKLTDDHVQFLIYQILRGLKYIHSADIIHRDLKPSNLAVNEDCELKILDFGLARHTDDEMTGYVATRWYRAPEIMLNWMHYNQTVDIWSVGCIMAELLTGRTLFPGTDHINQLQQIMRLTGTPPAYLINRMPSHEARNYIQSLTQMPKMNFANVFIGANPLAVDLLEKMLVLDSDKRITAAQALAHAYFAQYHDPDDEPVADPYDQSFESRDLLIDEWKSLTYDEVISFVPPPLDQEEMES

Sequence of B-Raf(V599E) kinase (P15056 with tags, fused parts or gaps V600E): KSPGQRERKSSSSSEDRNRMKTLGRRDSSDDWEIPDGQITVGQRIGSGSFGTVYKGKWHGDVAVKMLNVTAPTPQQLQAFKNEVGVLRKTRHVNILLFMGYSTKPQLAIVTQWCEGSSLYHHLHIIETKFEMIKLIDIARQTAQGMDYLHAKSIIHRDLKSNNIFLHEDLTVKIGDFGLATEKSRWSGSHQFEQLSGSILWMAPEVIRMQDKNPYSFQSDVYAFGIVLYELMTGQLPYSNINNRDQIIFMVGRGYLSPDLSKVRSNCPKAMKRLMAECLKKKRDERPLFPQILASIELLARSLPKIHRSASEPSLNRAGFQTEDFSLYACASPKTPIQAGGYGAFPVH

Compound	IC50 (B-Raf(V599E) kinase) [nM]	IC50 [1] [nM]
CC(C)(C)c1cc(NC(=O)Nc2cccc(Cl)c2Cl)n(-c2ccc(CC(=O)NCC(O)CO)cc2)n1 (stereo not drawn) [Example 493]	11	4
CO[C@@H]1CCN(C(=O)Cc2cccc(-n3nc(C(C)(C)C)cc3NC(=O)Nc3cccc(Cl)c3Cl)c2)C1 [Example 444, 1-(3-t-butyl-1-(3-(2-((R)-3-methoxypyrrolidin-1-yl)-2-oxoethyl)phenyl)-1H-pyrazol-5-yl)-3-(2,3-dichlorophenyl)urea]	20	63
CC(C)(C)c1cc(NC(=O)Nc2ccc(F)c(F)c2F)n(-c2cccc(CC(=O)O)c2)n1 [Example 356, 2-(3-(3-t-butyl-5-(3-(2,3,4-trifluorophenyl)-ureido)-1H-pyrazol-1-yl)phenyl)acetic acid]	14	72
NC(=O)Cc1cccc(-n2nc(-c3nccs3)cc2NC(=O)Nc2cccc(Cl)c2Cl)c1 [Example 410, 1-(1-(3-(2-amino-2-oxoethyl)phenyl)-3-(thiazol-2-yl)-1H-pyrazol-5-yl)-3-(2,3-dichlorophenyl)urea]	–	88
NC(=O)Cc1ccc(-n2nc(-c3cccc(F)c3)cc2NC(=O)Nc2cccc(Cl)c2Cl)cc1 [Example 480, 1-(1-(4-(2-amino-2-oxoethyl)phenyl)-3-(3-fluorophenyl)-1H-pyrazol-5-yl)-3-(2,3-dichlorophenyl)urea]	–	73
CC(C)(C)c1cc(NC(=O)Nc2ccccc2)n(-c2cc(CC(=O)O)c3ccccc3c2)n1 [Example 301, {3-[3-t-butyl-5-(3-phenylureido)pyrazol-1-yl]naphthalen-1-yl}acetic acid]	10	160
O=C(O)Cc1cccc(-n2nc(-c3nccs3)cc2NC(=O)Nc2cccc(Cl)c2Cl)c1 [Example 359, 2-(3-(5-(3-(2,3-dichlorophenyl)ureido)-3-(thiazol-2-yl)-1H-pyrazol-1-yl)phenyl)acetic acid]	–	70
O=C(O)Cc1ccc(-n2nc(-c3ccccc3F)cc2NC(=O)Nc2ccc(F)c(F)c2F)cc1 [Example 388, 2-(4-(3-(2-fluorophenyl)-5-(3-(2,3,4-trifluorophenyl)ureido)-1H-pyrazol-1-yl)phenyl)acetic acid]	–	91
O=C(Cc1cccc(-n2nc(-c3ccccc3F)cc2NC(=O)Nc2ccc(F)c(F)c2F)c1)NCC(O)CO (stereo not drawn) [Example 424, 1-(1-(3-(2-(2,3-Dihydroxypropylamino)-2-oxoethyl)phenyl)-3-(2-fluorophenyl)-1H-pyrazol-5-yl)-3-(2,3,4-trifluorophenyl)urea]	–	47
O=C(Cc1cccc(-n2nc(-c3ccccc3F)cc2NC(=O)N[C@H]2CCc3ccccc32)c1)NCCO [Example 412, 1-((S)-2,3-dihydro-1H-inden-1-yl)-3-(3-(2-fluorophenyl)-1-(3-(2-(2-hydroxyethylamino)-2-oxoethyl)phenyl)-1H-pyrazol-5-yl)urea]	–	41
NC(=O)Cc1cccc(-n2nc(-c3cccs3)cc2NC(=O)N[C@H]2CCc3ccccc32)c1 [Example 415, 1-(1-(3-(2-amino-2-oxoethyl)phenyl)-3-(thiophen-2-yl)-1H-pyrazol-5-yl)-3-((S)-2,3-dihydro-1H-inden-1-yl)urea]	–	17
O=C(O)Cc1cccc(-n2nc(-c3cccs3)cc2NC(=O)Nc2cccc3ccccc23)c1 [Example 364, 2-(3-(5-(3-(naphthalen-1-yl)ureido)-3-(thiophen-2-yl)-1H-pyrazol-1-yl)phenyl)acetic acid]	–	13
CC(C)(C)c1cc(NC(=O)Nc2cccc(Cl)c2Cl)n(-c2cccc(CC(=O)N3CCC[C@@H]3CO)c2)n1 [Example 407, 1-(3-t-butyl-1-(3-(2-((R)-2-(hydroxymethyl)pyrrolidin-1-yl)-2-oxoethyl)phenyl)-1H-pyrazol-5-yl)-3-(2,3-dichlorophenyl)urea]	–	45
COC[C@H]1CCCN1C(=O)Cc1ccc(-n2nc(C(C)(C)C)cc2NC(=O)Nc2cccc(Cl)c2Cl)cc1 [Example 484, (R)-1-(3-t-butyl-1-(4-(2-(2-(methoxymethyl)pyrrolidin-1-yl)-2-oxoethyl)phenyl)-1H-pyrazol-5-yl)-3-(2,3-dichlorophenyl)urea]	–	13
O=C(O)Cc1cccc(-n2nc(-c3cccs3)cc2NC(=O)N[C@H]2CCc3ccccc32)c1 [Example 361, 2-(3-(5-(3-((S)-2,3-dihydro-1H-inden-1-yl)ureido)-3-(thiophen-2-yl)-1H-pyrazol-1-yl)phenyl)acetic acid]	–	30
CC(C)(C)c1cc(NC(=O)Nc2cccc(Cl)c2Cl)n(-c2cccc(CC(=O)N3CCC[C@H]3CO)c2)n1 [Example 408, 1-(3-t-butyl-1-(3-(2-((S)-2-(hydroxymethyl)pyrrolidin-1-yl)-2-oxoethyl)phenyl)-1H-pyrazol-5-yl)-3-(2,3-dichlorophenyl)urea]	–	46

Compound	IC50 (B-Raf(V599E) kinase) [nM]	IC50 [1] [nM]
CC(C)(C)c1cc(NC(=O)Nc2cccc(Cl)c2Cl)n(-c2cccc(CC(=O)NCC(O)CO)c2)n1 (stereo not drawn) [Example 440, 1-(3-t-butyl-1-(3-(2-(2,3-dihydroxypropylamino)-2-oxoethyl)phenyl)-1H-pyrazol-5-yl)-3-(2,3-dichlorophenyl)urea]	4.1	7
O=C(O)Cc1cccc(-n2nc(-c3ccccc3F)cc2NC(=O)Nc2cccc3ccccc23)c1 [Example 363, 2-(3-(3-(2-Fluorophenyl)-5-(3-(naphthalen-1-yl)ureido)-1H-pyrazol-1-yl)phenyl)acetic acid]	–	13
CC(C)(C)c1ncc(NC(=O)Nc2cccc(Oc3cccnc3)c2)c(-c2ccccc2)n1 [Example 281, 1-(2-t-butyl-4-phenylpyrimidin-5-yl)-3-(3-(pyridin-3-yloxy)phenyl)urea]	369	5800
CC(C)(C)c1cc(NC(=O)NC2CCCCC2)n(-c2cc(CC(N)=O)c3ccccc3c2)n1 [Example 91, 1-(1-(4-(2-amino-2-oxoethyl)naphthalen-2-yl)-3-t-butyl-1H-pyrazol-5-yl)-3-cyclohexylurea]	20	350
COC[C@@H]1CCCN1C(=O)Cc1cccc(-n2nc(C(C)(C)C)cc2NC(=O)Nc2cccc(Cl)c2Cl)c1 [Example 409, 1-(3-t-butyl-1-(3-(2-((S)-2-(methoxymethyl)pyrrolidin-1-yl)-2-oxoethyl)phenyl)-1H-pyrazol-5-yl)-3-(2,3-dichlorophenyl)urea]	–	150
O=C(O)Cc1cccc(-n2nc(-c3ccccc3F)cc2NC(=O)Nc2ccc(F)c(F)c2F)c1 [Example 362, 2-(3-(3-(2-fluorophenyl)-5-(3-(2,3,4-trifluorophenyl)-ureido)-1H-pyrazol-1-yl)phenyl)acetic acid]	–	38
CNC(=O)Cc1cccc(-n2nc(C(C)(C)C)cc2NC(=O)Nc2cccc(F)c2F)c1 [Example 401, 1-(3-t-butyl-1-(3-(2-(methylamino)-2-oxoethyl)phenyl)-1H-pyrazol-5-yl)-3-(2,3-difluorophenyl)urea]	–	63
NC(=O)Cc1cccc(-n2nc(-c3ccccc3F)cc2NC(=O)Nc2ccc(F)c(F)c2F)c1 [Example 422, 1-(1-(3-(2-Amino-2-oxoethyl)phenyl)-3-(2-fluorophenyl)-1H-pyrazol-5-yl)-3-(2,3,4-trifluorophemyl)urea]	–	98
O=C(O)Cc1ccc(-n2nc(-c3cccs3)cc2NC(=O)N[C@H]2CCc3ccccc32)cc1 [Example 389, 2-(4-(5-(3-((S)-2,3-dihydro-1H-inden-1-yl)ureido)-3-(thiophen-2-yl)-1H-pyrazol-1-yl)phenyl)acetic acid]	–	13
O=C(Cc1ccc(-n2nc(-c3cccc(F)c3)cc2NC(=O)Nc2cccc(Cl)c2Cl)cc1)NCC(O)CO (stereo not drawn) [Example 481, 1-(2,3-dichlorophenyl)-3-(1-(4-(2-(2,3-dihydroxypropylamino)-2-oxoethyl)phenyl)-3-(3-fluorophenyl)-1H-pyrazol-5-yl)urea]	–	33
O=C(Cc1ccc(-n2nc(-c3cccs3)cc2NC(=O)N[C@H]2CCc3ccccc32)cc1)NCCO [Example 490, 1-((S)-2,3-dihydro-1H-inden-1-yl)-3-(1-(4-(2-(2-hydroxyethylamino)-2-oxoethyl)phenyl)-3-(thiophen-2-yl)-1H-pyrazol-5-yl)urea]	–	53
O=C(O)Cc1cccc(-n2nc(-c3cccs3)cc2NC(=O)Nc2ccc(F)c(F)c2F)c1 [Example 365, 2-(3-(3-(thiophen-2-yl)-5-(3-(2,3,4-trifluorophenyl)-ureido)-1H-pyrazol-1-yl)phenyl)acetic acid]	–	70
NC(=O)Cc1ccc(-n2nc(-c3cccs3)cc2NC(=O)N[C@H]2CCc3ccccc32)cc1 [Example 489, 1-(1-(4-(2-amino-2-oxoethyl)phenyl)-3-(thiophen-2-yl)-1H-pyrazol-5-yl)-3-((S)-2,3-dihydro-1H-inden-1-yl)urea]	–	35
CC(C)(C)c1ncc(NC(=O)Nc2cccc(Cl)c2Cl)c(-c2ccccc2)n1 [Example 279, 1-(2-t-butyl-4-phenylpyrimidin-5-yl)-3-(2,3-dichlorophenyl)urea]	697	1050
COC[C@@H]1CCCN1C(=O)Cc1ccc(-n2nc(C(C)(C)C)cc2NC(=O)Nc2cccc(Cl)c2Cl)cc1 [Example 485, (S)-1-(3-t-butyl-1-(4-(2-(2-(methoxymethyl)pyrrolidin-1-yl)-2-oxoethyl)phenyl)-1H-pyrazol-5-yl)-3-(2,3-dichlorophenyl)urea]	–	12
